The source of these data is US9175003B2, “Substituted azoanthracene derivatives and intermediates for preparation thereof” (TransTech Pharma, LLC, priority 2009, dated 2015).

For the experiment, the target named is human GLP-1 receptor (Homo sapiens (Human), UniProt P43220). Particulars: read-out: Mean EC50; cAMP, HTRF detection, 30 min at 37° C., HEK-293 cells expressing cloned human GLP-1 receptor.
Chain of human GLP-1 receptor (P43220 24-463): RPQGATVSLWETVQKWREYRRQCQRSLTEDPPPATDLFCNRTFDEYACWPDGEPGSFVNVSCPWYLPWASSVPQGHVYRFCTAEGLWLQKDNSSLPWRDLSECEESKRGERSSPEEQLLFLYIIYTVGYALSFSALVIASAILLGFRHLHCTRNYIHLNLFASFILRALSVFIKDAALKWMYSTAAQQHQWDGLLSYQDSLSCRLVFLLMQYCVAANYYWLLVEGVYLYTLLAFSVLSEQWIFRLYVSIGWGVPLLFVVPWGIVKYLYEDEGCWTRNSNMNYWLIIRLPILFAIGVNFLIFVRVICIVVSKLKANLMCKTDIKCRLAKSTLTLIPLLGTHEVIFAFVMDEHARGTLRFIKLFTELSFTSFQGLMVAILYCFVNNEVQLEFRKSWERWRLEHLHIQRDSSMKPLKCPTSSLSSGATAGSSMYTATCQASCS
For the compound `Cc1nccc(-c2ccc(C[C@H](NC(=O)[C@@H]3Cc4cc5c(cc4CN3C(=O)Nc3cnccn3)O[C@@H](c3ccc(OCc4ccc(Cl)c(Cl)c4)cc3)CO5)C(=O)O)cc2)c1C` [Example 257, (S)-2-{[(3S,8S)-3-[4-(3,4-Dichloro-benzyloxy)-phenyl]-7-(pyrazin-2-ylcarbamoyl)-2,3,6,7,8,9-hexahydro-[1,4]dioxino[2,3-g]isoquinoline-8-carbonyl]-amino}-3-[4-(2,3-dimethyl-pyridin-4-yl)-phenyl]-propionic acid], the EC50 stood at 348 nM.
Then `Cc1nccc(-c2ccc(C[C@H](NC(=O)[C@@H]3Cc4cc5c(cc4CN3C(=O)Nc3ccccn3)O[C@@H](c3ccc(OCc4ccc(Cl)c(Cl)c4)cc3)CO5)C(=O)O)cc2)c1C` [Example 258, (S)-2-{[(3S,8S)-3-[4-(3,4-dichloro-benzyloxy)-phenyl]-7-(pyridin-2-ylcarbamoyl)-2,3,6,7,8,9-hexahydro-[1,4]dioxino[2,3-g]isoquinoline-8-carbonyl]-amino}-3-[4-(2,3-dimethyl-pyridin-4-yl)-phenyl]-propionic acid], with 251 nM; and `Cc1ncoc1C(=O)N1Cc2cc3c(cc2C[C@H]1C(=O)N[C@@H](Cc1ccc(Oc2ccnc(C)c2C)cc1)C(=O)O)OC[C@H](c1ccc(OCc2ccc(Cl)c(Cl)c2)cc1)O3` [Example 263, (S)-2-{[(3S,8S)-3-[4-(3,4-Dichloro-benzyloxy)-phenyl]-7-(4-methyl-oxazole-5-carbonyl)-2,3,6,7,8,9-hexahydro-[1,4]dioxino[2,3-g]isoquinoline-8-carbonyl]-amino}-3-[4-(2,3-dimethyl-pyridin-4-yloxy)-phenyl]-propionic acid], with 187 nM.
With `Cc1nc(C)c(C(=O)N2Cc3cc4c(cc3C[C@H]2C(=O)N[C@@H](Cc2ccc(Oc3ccnc(C)c3C)cc2)C(=O)O)OC[C@H](c2ccc(OCc3ccc(Cl)c(Cl)c3)cc2)O4)o1` [Example 265, (S)-2-{[(3S,8S)-3-[4-(3,4-Dichloro-benzyloxy)-phenyl]-7-(2,4-dimethyl-oxazole-5-carbonyl)-2,3,6,7,8,9-hexahydro-[1,4]dioxino[2,3-g]isoquinoline-8-carbonyl]-amino}-3-[4-(2,3-dimethyl-pyridin-4-yloxy)-phenyl]-propionic acid] the figure was 95 nM.
With `Cc1cc(C(=O)N2Cc3cc4c(cc3C[C@H]2C(=O)N[C@@H](Cc2ccc(Oc3ccnc(C)c3C)cc2)C(=O)O)OC[C@H](c2ccc(OCc3ccc(Cl)c(Cl)c3)cc2)O4)n(C)n1` [Example 266, (S)-2-{[(3S,8S)-3-[4-(3,4-Dichloro-benzyloxy)-phenyl]-7-(2,5-dimethyl-2H-pyrazole-3-carbonyl)-2,3,6,7,8,9-hexahydro-[1,4]dioxino[2,3-g]isoquinoline-8-carbonyl]-amino}-3-[4-(2,3-dimethyl-pyridin-4-yloxy)-phenyl]-propionic acid] the figure was 132 nM; with `Cc1cc(C(=O)N2Cc3cc4c(cc3C[C@H]2C(=O)N[C@@H](Cc2ccc(-c3ccnc(C)c3C)cc2)C(=O)O)OC[C@H](c2ccc(OCc3ccc(Cl)c(Cl)c3)cc2)O4)n(C)n1` [Example 270, (S)-2-{[(3S,8S)-3-[4-(3,4-Dichloro-benzyloxy)-phenyl]-7-(2,5-dimethyl-2H-pyrazole-3-carbonyl)-2,3,6,7,8,9-hexahydro-[1,4]dioxino[2,3-g]isoquinoline-8-carbonyl]-amino}-3-[4-(2,3-dimethyl-pyridin-4-yl)-phenyl]-propionoc acid], 142 nM.
For `Cc1cc(C(=O)N2Cc3cc4c(cc3C[C@H]2C(=O)N[C@@H](Cc2ccc(-c3ccnc(C)c3C)cc2)C(=O)O)OC[C@H](c2ccc(OCc3ccc(Cl)c(Cl)c3)cc2)O4)no1` [Example 271, (S)-2-{[(3S,8S)-3-[4-(3,4-Dichloro-benzyloxy)-phenyl]-7-(5-methyl-isoxazole-3-carbonyl)-2,3,6,7,8,9-hexahydro-[1,4]dioxino[2,3-g]isoquinoline-8-carbonyl]-amino}-3-[4-(2,3-dimethyl-pyridin-4-yl)-phenyl]-propionic acid], the EC50 was 102 nM.
Then `Cc1nccc(-c2ccc(C[C@H](NC(=O)[C@@H]3Cc4cc5c(cc4CN3C(=O)C3CCN(C(=O)OC(C)(C)C)CC3)O[C@@H](c3ccc(OCc4ccc(Cl)c(Cl)c4)cc3)CO5)C(=O)O)cc2)c1C` [Example 274, 4-{(3S,8S)-8-{(S)-1-Carboxy-2-[4-(2,3-dimethyl-pyridin-4-yl)-phenyl]-ethylcarbamoyl}-3-[4-(3,4-dichloro-benzyloxy)-phenyl]-2,3,8,9-tetrahydro-6H-[1,4]dioxino[2,3-g]isoquinoline-7-carbonyl}-piperidine-1-carboxyl is acid tert-butyl ester], with 2 nM; and `Cc1nccc(-c2ccc(C[C@H](NC(=O)[C@@H]3Cc4cc5c(cc4CN3C(=O)c3cccc(O)c3)O[C@@H](c3ccc(OCc4ccc(Cl)c(Cl)c4)cc3)CO5)C(=O)O)cc2)c1C` [Example 277, (S)-2-{[(3S,8S)-3-[4-(3,4-Dichloro-benzyloxy)-phenyl]-7-(3-hydroxy-benzoyl)-2,3,6,7,8,9-hexahydro-[1,4]dioxino[2,3-g]isoquinoline-8-carbonyl]-amino}-3-[4-(2,3-dimethyl-pyridin-4-yl)-phenyl]-propionic acid], with 143 nM; and `Cc1nccc(-c2ccc(C[C@H](NC(=O)[C@@H]3Cc4cc5c(cc4CN3C(=O)c3cc(F)cc(F)c3)O[C@@H](c3ccc(OCc4ccc(Cl)c(Cl)c4)cc3)CO5)C(=O)O)cc2)c1C` [Example 278, (S)-2-{[(3S,8S)-3-[4-(3,4-Dichloro-benzyloxy)-phenyl]-7-(3,5-difluoro-benzoyl)-2,3,6,7,8,9-hexahydro-[1,4]dioxino[2,3-g]isoquinoline-8-carbonyl]-amino}-3-[4-(2,3-dimethyl-pyridin-4-yl)-phenyl]-propionic acid], with 45 nM.
Regarding `Cc1nccc(-c2ccc(C[C@H](NC(=O)[C@@H]3Cc4cc5c(cc4CN3C(=O)[C@H]3CCCN3C(=O)OC(C)(C)C)O[C@@H](c3ccc(OCc4ccc(Cl)c(Cl)c4)cc3)CO5)C(=O)O)cc2)c1C` [Example 279, (R)-2-{(3S,8S)-8-{(S)-1-Carboxy-2-[4-(2,3-dimethyl-pyridin-4-yl)-phenyl]-ethylcarbamoyl}-3-[4-(3,4-dichloro-benzyloxy)-phenyl]-2,3,8,9-tetrahydro-6H-[1,4]dioxino[2,3-g]isoquinoline-7-carbonyl}-pyrrolidine-1-carboxylic acid tert-butyl ester], the EC50 amounted to 15 nM.
With `Cc1nccc(-c2ccc(C[C@H](NC(=O)[C@@H]3Cc4cc5c(cc4CN3C(=O)[C@H]3CCN(C(=O)OC(C)(C)C)C3)O[C@@H](c3ccc(OCc4ccc(Cl)c(Cl)c4)cc3)CO5)C(=O)O)cc2)c1C` [Example 280, (S)-3-{(3S,8S)-8-{(S)-1-Carboxy-2-[4-(2,3-dimethyl-pyridin-4-yl)-phenyl]-ethylcarbamoyl}-3-[4-(3,4-dichloro-benzyloxy)-phenyl]-2,3,8,9-tetrahydro-6H-[1,4]dioxino[2,3-g]isoquinoline-7-carbonyl}-pyrrolidine-1-carboxylic acid tert-butyl ester], the EC50 was 165 nM.
On to `Cc1nccc(-c2ccc(C[C@H](NC(=O)[C@@H]3Cc4cc5c(cc4CN3C(=O)[C@@H]3CCN(C(=O)OC(C)(C)C)C3)O[C@@H](c3ccc(OCc4ccc(Cl)c(Cl)c4)cc3)CO5)C(=O)O)cc2)c1C` [Example 281, (R)-3-{(3S,8S)-8-{(S)-1-Carboxy-2-[4-(2,3-dimethyl-pyridin-4-yl)-phenyl]-ethylcarbamoyl}-3-[4-(3,4-dichloro-benzyloxy)-phenyl]-2,3,8,9-tetrahydro-6H-[1,4]dioxino[2,3-g]isoquinoline-7-carbonyl}-pyrrolidine-1-carboxylic acid tert-butyl ester], for which the half-maximal effective concentration (EC50) worked out at 5 nM.
Regarding `Cc1nccc(-c2ccc(C[C@H](NC(=O)[C@@H]3Cc4cc5c(cc4CN3C(=O)C3Cc4ccccc4C3)O[C@@H](c3ccc(OCc4ccc(Cl)c(Cl)c4)cc3)CO5)C(=O)O)cc2)c1C` [Example 282, (S)-2-{[(3S,8S)-3-[4-(3,4-Dichloro-benzyloxy)-phenyl]-7-(indane-2-carbonyl)-2,3,6,7,8,9-hexahydro-[1,4]dioxino[2,3-g]isoquinoline-8-carbonyl]-amino}-3-[4-(2,3-dimethyl-pyridin-4-yl)-phenyl]-propionic acid], the concentration giving a half-maximal response (EC50) was 198 nM.
Regarding `Cc1nccc(-c2ccc(C[C@H](NC(=O)[C@@H]3Cc4cc5c(cc4CN3C(=O)OC(C)C)O[C@@H](c3ccc(OCc4ccc(Cl)c(Cl)c4)cc3)CO5)C(=O)O)cc2)c1C` [Example 293, (3S,8S)-8-{(S)-1-Carboxy-2-[4-(2,3-dimethyl-pyridin-4-yl)-phenyl]-ethylcarbamoyl}-3-[4-(3,4-dichloro-benzyloxy)-phenyl]-2,3,8,9-tetrahydro-6H-[1,4]dioxino[2,3-g]isoquinoline-7-carboxylic acid isopropyl ester], the EC50 was 261 nM.
Then `Cc1nccc(-c2ccc(C[C@H](NC(=O)[C@@H]3Cc4cc5c(cc4CN3C(=O)OCC(C)C)O[C@@H](c3ccc(OCc4ccc(Cl)c(Cl)c4)cc3)CO5)C(=O)O)cc2)c1C` [Example 295, (3S,8S)-8-{(S)-1-Carboxy-2-[4-(2,3-dimethyl-pyridin-4-yl)-phenyl]-ethylcarbamoyl}-3-[4-(3,4-dichloro-benzyloxy)-phenyl]-2,3,8,9-tetrahydro-6H-[1,4]dioxino[2,3-g]isoquinoline-7-carboxylic acid isobutyl ester], with 137 nM; and `CCCCOC(=O)N1Cc2cc3c(cc2C[C@H]1C(=O)N[C@@H](Cc1ccc(Oc2ccnc(C)c2C)cc1)C(=O)O)OC[C@H](c1ccc(OCc2ccc(Cl)c(Cl)c2)cc1)O3` [Example 299, (3S,8S)-8-{(S)-1-Carboxy-2-[4-(2,3-dimethyl-pyridin-4-yloxy)-phenyl]-ethylcarbamoyl}-3-[4-(3,4-dichloro-benzyloxy)-phenyl]-2,3,8,9-tetrahydro-6H-[1,4]dioxino[2,3-g]isoquinoline-7-carboxylic acid butyl ester], with 263 nM.
